Legend:
OCI-AML3 cells = test: XRBS DNA methylation profiling of decitabine-treated cells; assay type: cell-based, human; conditions: OCI-AML3, 300 nM decitabine, five days, vs DMSO
Protocol: (§1) In order to detect differential methylation across an isogenic system, cell lines were treated with 300 nM decitabine, which inhibits DNA methyltransferase enzymes through covalent entrapment on DNA (FIGS. 22A and 22B). HL-60 and OCI-AML3 were treated, as these had intermediate global methylation levels among the four cell lines examined, and profiled DNA methylation using expanded representation bisulfite sequencing (XRBS) (FIG. 22C).
(§2) For expanded representation bisulfite sequencing (XRBS) profiles, HL-60 and OCI-AML3 cells were treated with 300 nM decitabine in 6 well plates. Cells were harvested after 5 days and gDNA was extracted using Qiagen DNA Mini Blood Kit (51104). 10 ng of gDNA were used for each library preparation.
(§3) Before alignment, primer dimers were filtered using Cutadapt version 2.7 and the following parameters:--discard -a GCTCTTCCGATCT. Short read pairs were trimmed using TrimGalore version 0.6.5 and the following parameters: --paired --illumina --nextseq 20. Trimmed sequencing reads were then aligned to an in-silico bisulfate-converted reference genome (hg38 and mm10) using methylCtools version 1.0.0 and bwa mem version 0.7.17. […] Putative PCR duplicates were removed by considering the outer mapping position of both paired-end reads, as well as the random hexamer sequence that was trimmed prior to alignment and functioned as a unique molecular identifier (UMI). For library complexity analysis, alignments were downsampled prior to this step. DNA methylation calling was performed using methylCtools bcall and the --trimPE parameter. DNA methylation values, which are incorporated herein by reference for all purposes, were deposited on GEO (GSE149954, token: azujmeaezxqdxgr).
(§4) All downstream analyses were performed in R (version 3.6.2), making extensive use of the data.table and GenomicRanges packages. For many analyses, average DNA methylation values within genomic regions were used. Regions included CpG islands, promoters (1 kb up- and downstream of all transcription start sites of protein-coding genes), enhancers and CTCF binding sites (Encyclopedia of DNA Elements (ENCODE) narrowPeak files), and genomic 100 kb-windows. Average methylation values within these regions were calculated by summarizing calls for methylated and unmethylated CpGs across the entire region, and then calculating a single beta-value. For 100 kb-windows, CpGs within islands were not included. Minimum coverage thresholds were applied as indicated. Similarly, average methylation values were calculated for each genomic bin when visualized as heatmaps (genomic regions were separated in 100 equally-sized bins). Differential DNA methylation analysis was performed by sorting regions according to their difference in average methylation values (for enhancers and CTCF binding sites) or by applying a threshold (0.5) on the difference between the average methylation values of one cell line to the average of the other three cell lines (for promoters).

HL-60 cells = test: as above; assay type: cell-based, human; conditions: HL-60, 300 nM decitabine, five days
Protocol: as §1, §2, §3, §4

Structure (SMILES): Nc1ncn([C@H]2C[C@H](O)[C@@H](CO)O2)c(=O)n1 [decitabine]
- decrease of DNA methylation levels in CpG islands (OCI-AML3 cells): 11.2%
- decrease of DNA methylation levels in non-island CpGs (OCI-AML3 cells): 14.0%
- reduction of average global methylation levels (OCI-AML3 cells): 13.7%
- decrease of DNA methylation levels in CpG islands (HL-60 cells; vs DMSO): 9.5%
- decrease of DNA methylation levels in non-island CpGs (HL-60 cells; vs DMSO): 20.2%
- reduction of average global methylation levels (HL-60 cells; vs DMSO): 19.1%
- average methylation of non-island CpGs after decitabine treatment (HL-60 cells; DMSO control 68.1%): 54.3%

From patent US20220282325A1, “METHYLATION ASSAYS AND USES THEREOF” (The General Hospital Corporation, priority 2019, published 2022)
